Measurements published in patent publication US10221163B2 (priority 2015, dated 2019).
Read-outs that look alike come from different tables or passages of the source.

Columns and labels:
NDM-1 = NDM-1 (Klebsiella pneumoniae, UniProt C7C422); test: biochemical; type: biochemical; details: fluorescence assay, CCF2-FA substrate, 1 pM enzyme, 2 hours at 25° C.; read-out: NDM-1 IC50
Outline: (§1)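 Fluorescence assay, CCF2-FA substrate (cephalosporin core linking 7-hydroxycoumarin to fluorescein); inhibitor + MBL + substrate, 2 h, 25° C. IC50 by 4-parameter fit, semi-log plot.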

IMP-1 = IMP-1 (Serratia marcescens, UniProt P52699); test: biochemical; type: biochemical; details: fluorescence assay, CCF2-FA substrate, 2 pM enzyme, 2 hours at 25° C.; read-out: IMP-1 IC50
Chain of IMP-1 (P52699 whole entry, looked up, species assumed): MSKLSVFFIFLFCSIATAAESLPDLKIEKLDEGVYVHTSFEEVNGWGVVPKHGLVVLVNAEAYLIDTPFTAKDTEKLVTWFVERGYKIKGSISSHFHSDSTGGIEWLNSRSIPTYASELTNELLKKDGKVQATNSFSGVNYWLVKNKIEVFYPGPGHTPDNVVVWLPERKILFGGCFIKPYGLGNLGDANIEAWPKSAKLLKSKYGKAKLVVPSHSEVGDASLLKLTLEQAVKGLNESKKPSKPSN
Outline: as §1

[1] = system: Pseudomonas aeruginosa MB9798 vs MB9799; details: ratio MITC95 PA_9798/MITC95 PA_9799
Outline: (§2)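 PAO1 pair, broth microdilution; fixed β-lactam (imipenem/ceftazidime) at ~CLSI breakpoint + fixed class A/C BLI for AmpC; serial MBLi titration; endpoint = MBLi conc. restoring susceptibility; MB9798:MB9799 ratio = efflux liability.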

[2] = system: Pseudomonas aeruginosa efflux− (MB9799), IMP-1; type: cell-based; details: concentration restoring susceptibility to imipenem at 2 μg/mL in the presence of a class A, C, D serine β-lactamase inhibitor closely related to relebactam
Outline: as §2

[3] = system: Pseudomonas aeruginosa efflux+ (MB9798), IMP-1; type: cell-based; details: concentration restoring susceptibility to imipenem at 2 μg/mL in the presence of a class A, C, D serine β-lactamase inhibitor closely related to relebactam
Outline: as §2

VIM-1 = VIM-1 (Pseudomonas aeruginosa (strain ATCC 15692 / DSM 22644 / CIP 104116 / JCM 14847 / LMG 12228 / 1C / PRS 101 / PAO1), UniProt A0A0F7KYQ8); test: biochemical; details: CCF2-FA substrate, 30 pM enzyme, 2 hours at 25° C.
Outline: as §1

[4] = system: Klebsiella pneumoniae expressing VIM-1 (IHMA599644); type: cell-based; details: with imipenem 1 μg/ml; 95% inhibition of bacterial growth
Outline: (§3)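 Imipenem 1 μg/ml + inhibitor; MBL-expressing clinical strains in 1.1×CAMHB, inoculum from saline suspension diluted 1:100; 35° C, 22–24 h; absorbance read-out.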

[5] = system: Serratia marcescens expressing IMP-1 (CL5741); type: cell-based; details: with imipenem 1 μg/ml; 95% inhibition of bacterial growth
Outline: as §3

[6] = system: Escherichia coli expressing NDM-1 (CLB30005, CLB30016); type: cell-based; details: with imipenem 1 μg/ml; 95% inhibition of bacterial growth
Outline: as §3

[7] = fluorescence assay, read-out: VIM-1 IC50

Chain of NDM-1 (C7C422 whole entry, looked up, species assumed): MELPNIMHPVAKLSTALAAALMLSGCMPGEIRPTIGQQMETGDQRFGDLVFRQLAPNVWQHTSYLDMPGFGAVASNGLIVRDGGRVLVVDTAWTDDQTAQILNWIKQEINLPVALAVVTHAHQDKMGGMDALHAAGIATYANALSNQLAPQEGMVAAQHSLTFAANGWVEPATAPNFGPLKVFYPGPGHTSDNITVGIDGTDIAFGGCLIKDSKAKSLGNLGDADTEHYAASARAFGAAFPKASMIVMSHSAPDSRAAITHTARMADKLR

Row | Compound | IC50 (NDM-1) [nM] | IC50 (IMP-1) [nM] | Efflux ratio [1] | P. aeruginosa expressing IMP-1, efflux − (MB9799) MITC95 [2] [µM] | P. aeruginosa expressing IMP-1, efflux + (MB9798) MITC95 [3] [µM] | IC50 (VIM-1; [7]) [nM] | Klebsiella pneumoniae expressing VIM-1 (IHMA599644) MITC95 [4] [µM] | Serratia marcescens expressing IMP-1 (CL5741) MITC95 [5] [µM] | Escherichia coli expressing NDM-1 (CLB30016) MITC95 [6] [µM] | IC50 (VIM-1; VIM-1 IC50, fluorescence assay) [nM]
1 | CC(C)(CN)NS(=O)(=O)c1ccc(-c2cccnc2N)c(-c2nn[nH]n2)c1S(N)(=O)=O [Example 211, N1-(1-amino-2-methylpropan-2-yl)-4-(2-aminopyridin-3-yl)-3-(2H-tetrazol-5-yl)benzene-1,2-disulfonamide] | 0.156 | 2.25 | 4.00 | 3.125 | 12.5 | 0.182 | 6.25 | 3.125 | 1.563 | –
2 | NC[C@H](N)CNS(=O)(=O)c1ccc(-c2cccnc2N)c(-c2nn[nH]n2)c1S(N)(=O)=O [Example 213, (S)-4-(2-aminopyridin-3-yl)-N1-(2,3-diaminopropyl)-3-(2H-tetrazol-5-yl)benzene-1,2-disulfonamide] | 0.0759 | 1.54 | 2.00 | 1.563 | 3.125 | 0.113 | 1.563 | 0.7813 | 0.3906 | –
3 | Nc1ncccc1-c1ccc(S(=O)(=O)NC[C@@H](N)CO)c(S(N)(=O)=O)c1-c1nn[nH]n1 [Example 214, (R)-N1-(2-amino-3-hydroxypropyl)-4-(2-amino-pyridin-3-yl)-3-(2H-tetrazol-5-yl)benzene-1,2-disulfonamide] | 0.566 | 8.49 | 8.00 | 1.563 | 12.5 | 0.732 | 3.125 | 1.563 | 0.7813 | –
4 | NC[C@H](CO)NS(=O)(=O)c1ccc(-c2cccnc2N)c(-c2nn[nH]n2)c1S(N)(=O)=O [Example 215, (R)-N1-(1-amino-3-hydroxypropan-2-yl)-4-(2-aminopyridin-3-yl)-3-(2H-tetrazol-5-yl)benzene-1,2-disulfonamide] | 0.175 | 2.12 | 1.00 | 1.563 | 1.563 | 0.222 | 3.125 | 0.3906 | 0.1953 | –
5 | Nc1ncccc1-c1ccc(S(=O)(=O)N[C@H]2C[C@@H]2N)c(S(N)(=O)=O)c1-c1nn[nH]n1 [Example 216, N1-((1S)-2-amino-cyclopropyl)-4-(2-aminopyridin-3-yl)-3-(2H-tetrazol-5-yl)benzene-1,2-disulfonamide] | 0.237 | 1.83 | 4.00 | 1.563 | 6.25 | – | 3.125 | 0.7813 | 0.1953 | 0.269
6 | Nc1ccc(-c2ccc(S(=O)(=O)NCCc3ncc[nH]3)c(S(N)(=O)=O)c2-c2nn[nH]n2)cn1 [Example 218, N^1-(2-(1H-imidazol-2-yl)ethyl)-4-(6-aminopyridin-3-yl)-3-(2H-tetrazol-5-yl)benzene-1,2-disulfonamide] | 0.786 | 0.694 | 15.99 | 1.563 | 25 | – | 3.125 | 0.7813 | 0.1953 | 0.549
7 | Nc1cncc(-c2ccc(S(=O)(=O)N[C@@H]3CCNC3)c(S(N)(=O)=O)c2-c2nn[nH]n2)c1 [Example 219, (R)-4-(5-aminopyridin-3-yl)-N1-(pyrrolidin-3-yl)-3-(2H-tetrazol-5-yl)benzene-1,2-disulfonamide] | 0.366 | 1.93 | 1.00 | 1.563 | 1.563 | 0.209 | 1.563 | 1.563 | 1.563 | –
8 | NS(=O)(=O)c1c(S(=O)(=O)N[C@@H]2CCNC2)ccc(-c2cccnc2N2CCNCC2)c1-c1nn[nH]n1 [Example 220, (R)-4-(2-(piperazin-1-yl)pyridin-3-yl)-N1-(pyrrolidin-3-yl)-3-(2H-tetrazol-5-yl)benzene-1,2-disulfonamide] | 1.57 | 35.8 | 4.00 | 1.563 | 6.25 | 0.442 | 1.563 | 3.125 | 1.563 | –
9 | C[C@H](CN)NS(=O)(=O)c1ccc(-c2cncc(N)c2)c(-c2nn[nH]n2)c1S(N)(=O)=O [Example 221, (R)—N1-(1-aminopropan-2-yl)-4-(5-aminopyridin-3-yl)-3-(2H-tetrazol-5-yl)benzene-1,2-disulfonamide] | 0.281 | 0.688 | 1.00 | 1.563 | 1.563 | 0.152 | 6.25 | 1.563 | 1.563 | –
10 | NC[C@H](O)CNS(=O)(=O)c1ccc(-c2ccncc2N)c(-c2nn[nH]n2)c1S(N)(=O)=O [Example 222, (S)—N1-(3-amino-2-hydroxypropyl)-4-(3-aminopyridin-4-yl)-3-(2H-tetrazol-5-yl)benzene-1,2-disulfonamide] | 0.311 | 1.19 | 1.00 | 1.563 | 1.563 | 0.445 | 3.125 | 1.563 | 0.3906 | –
11 | NC[C@H](N)CNS(=O)(=O)c1ccc(-c2cnccc2N)c(-c2nn[nH]n2)c1S(N)(=O)=O [Example 223, (S)-4-(4-aminopyridin-3-yl)-N1-(2,3-diaminopropyl)-3-(2H-tetrazol-5-yl)benzene-1,2-disulfonamide] | 1.75 | 4.51 | 2.00 | 0.7813 | 1.563 | – | 0.3906 | 0.3906 | 0.09766 | 1.41
12 | NS(=O)(=O)c1c(S(=O)(=O)N[C@@H]2CCNC2)ccc(-c2cccc(-c3nc[nH]n3)c2)c1-c1nn[nH]n1 [Example 225, (R)-N4-(pyrrolidin-3-yl)-2-(2H-tetrazol-5-yl)-3′-(1H-1,2,4-triazol-3-yl)-[1,1′-biphenyl]-3,4-disulfonamide] | 0.0256 | 0.11 | 1.00 | 1.563 | 1.563 | 0.0561 | 3.125 | 1.563 | 3.125 | –
